Measurements as given in ChEMBL document CHEMBL1201861, “Genomics of Drug Sensitity in Cancer screening data, Wellcome Trust Sanger Institute”.

Key:
Experiment in all cases: cells
NCI-H1693 = format: functional, cell-based, Homo sapiens; conditions: Homo sapiens, NCI-H1693
Description: SANGER: Inhibition of human NCI-H1693 cell growth in a cell viability assay.

COLO-684 = format: functional, cell-based; conditions: Homo sapiens
Description: SANGER: Inhibition of human COLO-684 cell growth in a cell viability assay.

MN-60 = format: functional, cell-based; conditions: Homo sapiens
Description: SANGER: Inhibition of human MN-60 cell growth in a cell viability assay.

NB12 = format: functional, cell-based, Homo sapiens; conditions: Homo sapiens, NB12
Description: SANGER: Inhibition of human NB12 cell growth in a cell viability assay.

SK-LU-1 = format: functional, cell-based, Homo sapiens; conditions: Homo sapiens, SK-LU-1
Description: SANGER: Inhibition of human SK-LU-1 cell growth in a cell viability assay.

HCC38 = format: functional, cell-based, Homo sapiens; conditions: Homo sapiens, HCC38
Description: SANGER: Inhibition of human HCC38 cell growth in a cell viability assay.

D-392MG = format: functional, cell-based, Homo sapiens; conditions: Homo sapiens, D-392MG
SW872 = format: functional, cell-based, Homo sapiens; conditions: Homo sapiens, SW872
Description: SANGER: Inhibition of human SW872 cell growth in a cell viability assay.

NCI-H727 = format: functional, cell-based, Homo sapiens; conditions: Homo sapiens, NCI-H727
Description: SANGER: Inhibition of human NCI-H727 cell growth in a cell viability assay.

MEL-HO = format: functional, cell-based, Homo sapiens; conditions: Homo sapiens, MEL-HO
Description: SANGER: Inhibition of human MEL-HO cell growth in a cell viability assay.

MOLT-4 = format: functional, cell-based; conditions: Homo sapiens
Description: SANGER: Inhibition of human MOLT-4 cell growth in a cell viability assay.

UO-31 = format: functional, cell-based; conditions: Homo sapiens
Description: SANGER: Inhibition of human U031 cell growth in a cell viability assay.

HO-1-N-1 = format: functional, cell-based, Homo sapiens; conditions: Homo sapiens, HO-1-N-1
Description: SANGER: Inhibition of human HO-1-N-1 cell growth in a cell viability assay.

OCI-AML2 = format: functional, cell-based; conditions: Homo sapiens
Description: SANGER: Inhibition of human OCI-AML2 cell growth in a cell viability assay.

T47D = format: functional, cell-based, Homo sapiens; conditions: Homo sapiens, T47D
Description: SANGER: Inhibition of human T47D cell growth in a cell viability assay.

SHP77 = format: functional, cell-based, Homo sapiens, SHP-77; conditions: Homo sapiens, SHP77
Description: SANGER: Inhibition of human SHP-77 cell growth in a cell viability assay.

NCI-H69 = format: functional, cell-based; conditions: Homo sapiens
Description: SANGER: Inhibition of human NCI-H69 cell growth in a cell viability assay.

ACN = format: functional, cell-based, Homo sapiens; conditions: Homo sapiens, ACN
Description: SANGER: Inhibition of human ACN cell growth in a cell viability assay.

Mo = format: functional, cell-based; conditions: Homo sapiens
Description: SANGER: Inhibition of human Mo-T cell growth in a cell viability assay.

BCPAP = format: functional, cell-based, Homo sapiens; conditions: Homo sapiens, BCPAP
Description: SANGER: Inhibition of human BCPAP cell growth in a cell viability assay.

697 = format: functional, cell-based; conditions: Homo sapiens
Description: SANGER: Inhibition of human 697 cell growth in a cell viability assay.

NH-12 = format: functional, cell-based, Homo sapiens; conditions: Homo sapiens, NH-12
Description: SANGER: Inhibition of human NH-12 cell growth in a cell viability assay.

CP66-MEL = format: functional, cell-based, Homo sapiens; conditions: Homo sapiens, CP66-MEL
Description: SANGER: Inhibition of human CP66-MEL cell growth in a cell viability assay.

DU-145 = format: functional, cell-based, Homo sapiens; conditions: Homo sapiens, DU-145
Description: SANGER: Inhibition of human DU-145 cell growth in a cell viability assay.

CAL-33 = format: functional, cell-based, Homo sapiens; conditions: Homo sapiens, CAL-33
Description: SANGER: Inhibition of human CAL-33 cell growth in a cell viability assay.

P30-OHK = format: functional, cell-based; conditions: Homo sapiens
Description: SANGER: Inhibition of human P30-OHK cell growth in a cell viability assay.

EC-GI-10 = format: functional, cell-based, Homo sapiens; conditions: Homo sapiens, EC-GI-10
Description: SANGER: Inhibition of human EC-GI-10 cell growth in a cell viability assay.

RO82-W-1 = format: functional, cell-based, Homo sapiens; conditions: Homo sapiens, RO82-W-1
Description: SANGER: Inhibition of human RO82-W-1 cell growth in a cell viability assay.

NCI-H446 = format: functional, cell-based; conditions: Homo sapiens
Description: SANGER: Inhibition of human NCI-H446 cell growth in a cell viability assay.

DOK = format: functional, cell-based, Homo sapiens; conditions: Homo sapiens, DOK
Description: SANGER: Inhibition of human DOK cell growth in a cell viability assay.

GI-1 = format: functional, cell-based, Homo sapiens; conditions: Homo sapiens, GI-1
Description: SANGER: Inhibition of human GI-1 cell growth in a cell viability assay.

BPH-1 = format: functional, cell-based, Homo sapiens; conditions: Homo sapiens, BPH-1
Description: SANGER: Inhibition of human BPH-1 cell growth in a cell viability assay.

OE19 = format: functional, cell-based, Homo sapiens; conditions: Homo sapiens, OE19
Description: SANGER: Inhibition of human OE19 cell growth in a cell viability assay.

HCE-T = format: functional, cell-based, Homo sapiens; conditions: Homo sapiens, HCE-T
Description: SANGER: Inhibition of human HCE-T cell growth in a cell viability assay.

MMAC-SF = format: functional, cell-based, Homo sapiens; conditions: Homo sapiens, MMAC-SF
Description: SANGER: Inhibition of human MMAC-SF cell growth in a cell viability assay.

KP-N-YS = format: functional, cell-based; conditions: Homo sapiens
Description: SANGER: Inhibition of human KP-N-YS cell growth in a cell viability assay.

COLO-741 = format: functional, cell-based, Homo sapiens; conditions: Homo sapiens, COLO-741
Description: SANGER: Inhibition of human COLO-741 cell growth in a cell viability assay.

CGTH-W-1 = format: functional, cell-based, Homo sapiens; conditions: Homo sapiens, CGTH-W-1
Description: SANGER: Inhibition of human CGTH-W-1 cell growth in a cell viability assay.

EKVX = format: functional, cell-based, Homo sapiens; conditions: Homo sapiens, EKVX
Description: SANGER: Inhibition of human EKVX cell growth in a cell viability assay.

SW48 = format: functional, cell-based, Homo sapiens; conditions: Homo sapiens, SW48
Description: SANGER: Inhibition of human SW48 cell growth in a cell viability assay.

HC-1 = format: functional, cell-based; conditions: Homo sapiens
Description: SANGER: Inhibition of human HC-1 cell growth in a cell viability assay.

CAL-62 = format: functional, cell-based, Homo sapiens; conditions: Homo sapiens, CAL-62
Description: SANGER: Inhibition of human CAL-62 cell growth in a cell viability assay.

UMUC3 = format: functional, cell-based, Homo sapiens; conditions: Homo sapiens, UMUC3
Description: SANGER: Inhibition of human UM-UC-3 cell growth in a cell viability assay.

DEL = format: functional, cell-based; conditions: Homo sapiens
Description: SANGER: Inhibition of human DEL cell growth in a cell viability assay.

JVM-3 = format: functional, cell-based; conditions: Homo sapiens
Description: SANGER: Inhibition of human JVM-3 cell growth in a cell viability assay.

MS-1 = format: functional, cell-based; conditions: Homo sapiens
Description: SANGER: Inhibition of human MS-1 cell growth in a cell viability assay.

D-263MG = format: functional, cell-based, Homo sapiens; conditions: Homo sapiens, D-263MG
Description: SANGER: Inhibition of human D-263MG cell growth in a cell viability assay.

SK-N-DZ = format: functional, cell-based, Homo sapiens; conditions: Homo sapiens, SK-N-DZ
Description: SANGER: Inhibition of human SK-N-DZ cell growth in a cell viability assay.

A204 = format: functional, cell-based, Homo sapiens; conditions: Homo sapiens, A204
Description: SANGER: Inhibition of human A204 cell growth in a cell viability assay.

ESS-1 = format: functional, cell-based, Homo sapiens; conditions: Homo sapiens, ESS-1
Description: SANGER: Inhibition of human ESS-1 cell growth in a cell viability assay.

HD-MY-Z = format: functional, cell-based, Homo sapiens; conditions: Homo sapiens, HD-MY-Z
Description: SANGER: Inhibition of human HD-MY-Z cell growth in a cell viability assay.

Hs-578T = format: functional, cell-based, Homo sapiens; conditions: Homo sapiens, Hs-578T
Description: SANGER: Inhibition of human Hs-578-T cell growth in a cell viability assay.

NCI-H1299 = format: functional, cell-based, Homo sapiens; conditions: Homo sapiens, NCI-H1299
Description: SANGER: Inhibition of human NCI-H1299 cell growth in a cell viability assay.

## Cn1cncc1[C@@](N)(c1ccc(Cl)cc1)c1ccc2c(c1)c(-c1cccc(Cl)c1)cc(=O)n2C [TIPIFARNIB]
NCI-H1693
  IC50: > 16000 nM
COLO-684
  IC50: 5710 nM
MN-60
  IC50: > 16000 nM
NB12
  IC50: 7990 nM
SK-LU-1
  IC50: 3550 nM
HCC38
  IC50: 6100 nM
D-392MG
  IC50: > 16000 nM
SW872
  IC50: 1450 nM
NCI-H727
  IC50: 874 nM
MEL-HO
  IC50: 2240 nM
MOLT-4
  IC50: 4910 nM
UO-31
  IC50: 10700 nM
HO-1-N-1
  IC50: 10500 nM
OCI-AML2
  IC50: 2030 nM
T47D
  IC50: > 16000 nM
SHP77
  IC50: 9940 nM
NCI-H69
  IC50: > 16000 nM
ACN
  IC50: 1460 nM
Mo
  IC50: > 16000 nM
BCPAP
  IC50: 1320 nM
697
  IC50: 1280 nM
NH-12
  IC50: 5590 nM
CP66-MEL
  IC50: 9820 nM
DU-145
  IC50: 8660 nM
CAL-33
  IC50: 3680 nM
P30-OHK
  IC50: 264 nM
EC-GI-10
  IC50: > 16000 nM
RO82-W-1
  IC50: > 16000 nM
NCI-H446
  IC50: > 16000 nM
DOK
  IC50: > 16000 nM
GI-1
  IC50: 4420 nM
BPH-1
  IC50: 2240 nM
OE19
  IC50: 5750 nM
HCE-T
  IC50: 8000 nM
MMAC-SF
  IC50: 13700 nM
KP-N-YS
  IC50: > 16000 nM
COLO-741
  IC50: 6550 nM
CGTH-W-1
  IC50: 5010 nM
EKVX
  IC50: > 16000 nM
SW48
  IC50: 8610 nM
HC-1
  IC50: 1750 nM
CAL-62
  IC50: 1790 nM
UMUC3
  IC50: 12600 nM
DEL
  IC50: 1030 nM
JVM-3
  IC50: > 16000 nM
MS-1
  IC50: > 16000 nM
D-263MG
  IC50: > 16000 nM
SK-N-DZ
  IC50: 4710 nM
A204
  IC50: 3580 nM
ESS-1
  IC50: > 16000 nM
HD-MY-Z
  IC50: > 16000 nM
Hs-578T
  IC50: > 16000 nM
NCI-H1299
  IC50: 693 nM

## CCC1=C[C@@H]2CN(C1)Cc1c([nH]c3ccccc13)[C@@](C(=O)OC)(c1cc3c(cc1OC)N(C)[C@H]1[C@@](O)(C(=O)OC)[C@H](OC(C)=O)[C@]4(CC)C=CCN5CC[C@]31[C@@H]54)C2 [VINORELBINE]
NCI-H1693
  IC50: > 64 nM
COLO-684
  IC50: 13.7 nM
MN-60
  IC50: > 64 nM
NB12
  IC50: 2.11 nM
SK-LU-1
  IC50: 51.8 nM
HCC38
  IC50: 4.87 nM
D-392MG
  IC50: > 64 nM
SW872
  IC50: 5.65 nM
NCI-H727
  IC50: > 64 nM
MEL-HO
  IC50: 3.29 nM
MOLT-4
  IC50: 6.66 nM
UO-31
  IC50: > 64 nM
HO-1-N-1
  IC50: 6.65 nM
OCI-AML2
  IC50: 10.3 nM
T47D
  IC50: > 64 nM
SHP77
  IC50: > 64 nM
NCI-H69
  IC50: 6.34 nM
ACN
  IC50: 1.33 nM
Mo
  IC50: > 64 nM
BCPAP
  IC50: 2.98 nM
697
  IC50: 4.23 nM
NH-12
  IC50: 27 nM
CP66-MEL
  IC50: 45.1 nM
DU-145
  IC50: 4.81 nM
CAL-33
  IC50: 5.02 nM
P30-OHK
  IC50: 10.1 nM
EC-GI-10
  IC50: > 64 nM
RO82-W-1
  IC50: > 64 nM
NCI-H446
  IC50: 14.8 nM
DOK
  IC50: > 64 nM
GI-1
  IC50: 3.54 nM
BPH-1
  IC50: 1.9 nM
OE19
  IC50: 13.2 nM
HCE-T
  IC50: > 64 nM
MMAC-SF
  IC50: 20.5 nM
KP-N-YS
  IC50: 21.8 nM
COLO-741
  IC50: 35.7 nM
CGTH-W-1
  IC50: 0.232 nM
EKVX
  IC50: > 64 nM
SW48
  IC50: 5.8 nM
HC-1
  IC50: 3.89 nM
CAL-62
  IC50: 8.18 nM
UMUC3
  IC50: 21.2 nM
DEL
  IC50: 3.63 nM
JVM-3
  IC50: > 64 nM
MS-1
  IC50: > 64 nM
D-263MG
  IC50: > 64 nM
SK-N-DZ
  IC50: > 64 nM
A204
  IC50: 3.21 nM
ESS-1
  IC50: 9.14 nM
HD-MY-Z
  IC50: 29.2 nM
Hs-578T
  IC50: > 64 nM
NCI-H1299
  IC50: 13.6 nM
